Measurements as given in PubChem BioAssay (NCI).
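Exposure lasted 48 hours, with cells grown in 96-well plates and compounds tested at five concentrations. GI50: concentration for 50% inhibition of growth. TGI is the concentration that stops growth completely.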

Experiments:
Assay in all cases: growth of human tumour cells (NCI), 48 h
786-0 renal = test system: 786-0 renal
A498 renal = test system: A498 renal
A549 NSCLC = test system: A549 NSCLC
ACHN renal = test system: ACHN renal
CAKI-1 renal = test system: CAKI-1 renal
CCRF-CEM leukemia = test system: CCRF-CEM leukemia
COLO 205 colon = test system: COLO 205 colon
DLD-1 colon = test system: DLD-1 colon
DMS 114 small cell lung = test system: DMS 114 small cell lung
EKVX NSCLC = test system: EKVX NSCLC
HCC-2998 colon = test system: HCC-2998 colon
HCT-116 colon = test system: HCT-116 colon
HCT-15 colon = test system: HCT-15 colon
HL-60(TB) leukemia = test system: HL-60(TB) leukemia
HOP-18 NSCLC = test system: HOP-18 NSCLC
HOP-92 NSCLC = test system: HOP-92 NSCLC
HT29 colon = test system: HT29 colon
IGROV1 ovarian = test system: IGROV1 ovarian
K-562 leukemia = test system: K-562 leukemia
KM12 colon = test system: KM12 colon
LOX IMVI melanoma = test system: LOX IMVI melanoma
LXFL 529 NSCLC = test system: LXFL 529 NSCLC
M14 melanoma = test system: M14 melanoma
M19-MEL melanoma = test system: M19-MEL melanoma
MALME-3M melanoma = test system: MALME-3M melanoma
MOLT-4 leukemia = test system: MOLT-4 leukemia
NCI-H226 lung = test system: NCI-H226 lung
NCI-H23 lung = test system: NCI-H23 lung
NCI-H460 lung = test system: NCI-H460 lung
NCI-H522 lung = test system: NCI-H522 lung
OVCAR-4 ovarian = test system: OVCAR-4 ovarian
OVCAR-5 ovarian = test system: OVCAR-5 ovarian
OVCAR-8 ovarian = test system: OVCAR-8 ovarian
RPMI-8226 leukemia = test system: RPMI-8226 leukemia
SF-268 CNS = test system: SF-268 CNS
SF-295 CNS = test system: SF-295 CNS
SF-539 CNS = test system: SF-539 CNS
SK-MEL-2 melanoma = test system: SK-MEL-2 melanoma
SK-MEL-28 melanoma = test system: SK-MEL-28 melanoma
SK-MEL-5 melanoma = test system: SK-MEL-5 melanoma
SK-OV-3 ovarian = test system: SK-OV-3 ovarian
SN12C renal = test system: SN12C renal
SNB-75 CNS = test system: SNB-75 CNS
SNB-78 CNS = test system: SNB-78 CNS
SR leukemia = test system: SR leukemia
SW-620 colon = test system: SW-620 colon
TK-10 renal = test system: TK-10 renal
U251 CNS = test system: U251 CNS
UACC-257 melanoma = test system: UACC-257 melanoma
UACC-62 melanoma = test system: UACC-62 melanoma
UO-31 renal = test system: UO-31 renal
DMS 273 small cell lung = test system: DMS 273 small cell lung
HOP-62 NSCLC = test system: HOP-62 NSCLC
KM20L2 colon = test system: KM20L2 colon
OVCAR-3 ovarian = test system: OVCAR-3 ovarian
RXF 393 renal = test system: RXF 393 renal
SNB-19 CNS = test system: SNB-19 CNS

Structure (SMILES): COc1ccc(/C(=N/O)C(c2ccc(OC)cc2)C2C(=O)Oc3ccccc32)cc1 (stereo not given)
- TGI (786-0 renal): > 100 µM
- TGI (A498 renal): > 100 µM
- TGI (A549 NSCLC): > 100 µM
- TGI (ACHN renal): > 100 µM
- TGI (CAKI-1 renal): > 100 µM
- TGI (CCRF-CEM leukemia): > 100 µM
- TGI (COLO 205 colon): 7.05 µM
- TGI (DLD-1 colon): > 100 µM
- TGI (DMS 114 small cell lung): 79.9 µM
- TGI (EKVX NSCLC): > 100 µM
- TGI (HCC-2998 colon): > 100 µM
- TGI (HCT-116 colon): > 100 µM
- TGI (HCT-15 colon): > 100 µM
- TGI (HL-60(TB) leukemia): > 100 µM
- TGI (HOP-18 NSCLC): > 100 µM
- TGI (HOP-92 NSCLC): 80.6 µM
- TGI (HT29 colon): > 100 µM
- TGI (IGROV1 ovarian): > 100 µM
- TGI (K-562 leukemia): > 100 µM
- TGI (KM12 colon): > 100 µM
- TGI (LOX IMVI melanoma): > 100 µM
- TGI (LXFL 529 NSCLC): > 100 µM
- TGI (M14 melanoma): > 100 µM
- TGI (M19-MEL melanoma): > 100 µM
- TGI (MALME-3M melanoma): > 100 µM
- TGI (MOLT-4 leukemia): > 100 µM
- TGI (NCI-H226 lung): > 100 µM
- TGI (NCI-H23 lung): > 100 µM
- TGI (NCI-H460 lung): > 100 µM
- TGI (NCI-H522 lung): > 100 µM
- TGI (OVCAR-4 ovarian): > 100 µM
- TGI (OVCAR-5 ovarian): > 100 µM
- TGI (OVCAR-8 ovarian): > 100 µM
- TGI (RPMI-8226 leukemia): > 100 µM
- TGI (SF-268 CNS): > 100 µM
- TGI (SF-295 CNS): 11.7 µM
- TGI (SF-539 CNS): > 100 µM
- TGI (SK-MEL-2 melanoma): > 100 µM
- TGI (SK-MEL-28 melanoma): > 100 µM
- TGI (SK-MEL-5 melanoma): 68.2 µM
- TGI (SK-OV-3 ovarian): > 100 µM
- TGI (SN12C renal): > 100 µM
- TGI (SNB-75 CNS): > 100 µM
- TGI (SNB-78 CNS): > 100 µM
- TGI (SR leukemia): > 100 µM
- TGI (SW-620 colon): > 100 µM
- TGI (TK-10 renal): > 100 µM
- TGI (U251 CNS): > 100 µM
- TGI (UACC-257 melanoma): > 100 µM
- TGI (UACC-62 melanoma): > 100 µM
- TGI (UO-31 renal): > 100 µM

Structure (SMILES): O=C([O-])c1cc(I)cc(I)c1[OH2+].O=C([O-])c1cc(I)cc(I)c1[OH2+].[Mn+2]
- GI50 (786-0 renal): 51 µM
- TGI (786-0 renal): > 100 µM
- GI50 (A549 NSCLC): 56.4 µM
- TGI (A549 NSCLC): > 100 µM
- GI50 (ACHN renal): 20.3 µM
- TGI (ACHN renal): 59 µM
- GI50 (CCRF-CEM leukemia): > 100 µM
- TGI (CCRF-CEM leukemia): > 100 µM
- GI50 (COLO 205 colon): > 100 µM
- TGI (COLO 205 colon): > 100 µM
- GI50 (DLD-1 colon): > 100 µM
- TGI (DLD-1 colon): > 100 µM
- GI50 (DMS 114 small cell lung): 32 µM
- TGI (DMS 114 small cell lung): > 100 µM
- GI50 (DMS 273 small cell lung): 37.7 µM
- TGI (DMS 273 small cell lung): > 100 µM
- GI50 (EKVX NSCLC): 72.3 µM
- TGI (EKVX NSCLC): > 100 µM
- GI50 (HCT-116 colon): 36.7 µM
- TGI (HCT-116 colon): > 100 µM
- GI50 (HCT-15 colon): > 100 µM
- TGI (HCT-15 colon): > 100 µM
- GI50 (HL-60(TB) leukemia): > 100 µM
- TGI (HL-60(TB) leukemia): > 100 µM
- GI50 (HOP-18 NSCLC): > 100 µM
- TGI (HOP-18 NSCLC): > 100 µM
- GI50 (HOP-62 NSCLC): 35.2 µM
- TGI (HOP-62 NSCLC): > 100 µM
- GI50 (HT29 colon): 97.8 µM
- TGI (HT29 colon): > 100 µM
- GI50 (IGROV1 ovarian): 19.4 µM
- TGI (IGROV1 ovarian): 49.4 µM
- GI50 (K-562 leukemia): > 100 µM
- TGI (K-562 leukemia): > 100 µM
- GI50 (KM12 colon): 67.3 µM
- TGI (KM12 colon): > 100 µM
- GI50 (KM20L2 colon): > 100 µM
- TGI (KM20L2 colon): > 100 µM
- GI50 (LOX IMVI melanoma): 46.2 µM
- TGI (LOX IMVI melanoma): > 100 µM
- GI50 (M14 melanoma): 42.9 µM
- TGI (M14 melanoma): > 100 µM
- GI50 (M19-MEL melanoma): 81.7 µM
- TGI (M19-MEL melanoma): > 100 µM
- GI50 (MALME-3M melanoma): 33.9 µM
- TGI (MALME-3M melanoma): > 100 µM
- GI50 (MOLT-4 leukemia): > 100 µM
- TGI (MOLT-4 leukemia): > 100 µM
- GI50 (NCI-H226 lung): 33.7 µM
- TGI (NCI-H226 lung): 74.1 µM
- GI50 (NCI-H23 lung): 30.4 µM
- TGI (NCI-H23 lung): 89.4 µM
- GI50 (NCI-H460 lung): 64 µM
- TGI (NCI-H460 lung): > 100 µM
- GI50 (NCI-H522 lung): 22.2 µM
- TGI (NCI-H522 lung): 69.2 µM
- GI50 (OVCAR-3 ovarian): 24 µM
- TGI (OVCAR-3 ovarian): 77.6 µM
- GI50 (OVCAR-8 ovarian): 34.2 µM
- TGI (OVCAR-8 ovarian): > 100 µM
- GI50 (RPMI-8226 leukemia): > 100 µM
- TGI (RPMI-8226 leukemia): > 100 µM
- GI50 (RXF 393 renal): 17.8 µM
- TGI (RXF 393 renal): 40.2 µM
- GI50 (SF-295 CNS): 33.5 µM
- TGI (SF-295 CNS): > 100 µM
- GI50 (SF-539 CNS): 24.8 µM
- TGI (SF-539 CNS): 60 µM
- GI50 (SK-MEL-2 melanoma): 48.5 µM
- TGI (SK-MEL-2 melanoma): > 100 µM
- GI50 (SK-MEL-28 melanoma): > 100 µM
- TGI (SK-MEL-28 melanoma): > 100 µM
- GI50 (SK-MEL-5 melanoma): > 100 µM
- TGI (SK-MEL-5 melanoma): > 100 µM
- GI50 (SK-OV-3 ovarian): 20 µM
- TGI (SK-OV-3 ovarian): 44.2 µM
- GI50 (SN12C renal): 18.9 µM
- TGI (SN12C renal): 42.9 µM
- GI50 (SNB-19 CNS): 29 µM
- TGI (SNB-19 CNS): 87.7 µM
- GI50 (SNB-75 CNS): 60.1 µM
- TGI (SNB-75 CNS): 99.8 µM
- GI50 (SW-620 colon): 53.2 µM
- TGI (SW-620 colon): > 100 µM
- GI50 (TK-10 renal): 32.1 µM
- TGI (TK-10 renal): > 100 µM
- GI50 (U251 CNS): 21.5 µM
- TGI (U251 CNS): 61.3 µM
- GI50 (UACC-257 melanoma): 18.8 µM
- TGI (UACC-257 melanoma): 43.1 µM
- GI50 (UACC-62 melanoma): 45.7 µM
- TGI (UACC-62 melanoma): > 100 µM
- GI50 (UO-31 renal): 35.6 µM
- TGI (UO-31 renal): > 100 µM
